Measured values published in EP4682144A1, “SOLID FORM OF PYRROLIDONE DERIVATIVE AS GLUCOKINASE ACTIVATOR” (Hua Medicine (Shanghai) Ltd., priority 2023, dated 2024).
Values after ≈ are worked out from the molar mass of the structure shown. Where a name gives a salt, the structure may show the parent alone.

Key:
[1] = Simulated metabolic test in human intestine S9; type: in vitro ADME
Experimental: Preparation of phosphate buffer (PB): 73.21 g of K2HPO4·3H2O (AR grade) and 10.78 g of KH2PO4 (AR grade) were dissolved in ultra-pure water to obtain a final volume of 4000 mL and a final concentration of 100 mM. The pH of the final test solution was adjusted to 7.40±0.10 with H3PO4/KOH.
An Apricot automation workstation was used to add 50 µL/well of HIS9 solution to the corresponding wells of all reaction plates (blank, T0, T5, T15, T30, T45, T60).
An Apricot automation workstation was used to add 48 µL/well of PB to the corresponding wells of every reaction plate (blank, T0, T5, T15, T30, T45, T60) to start the reaction.
The reaction plates were incubated at 37 °C, and timer was started. An Apricot automation workstation was used to add 300 µL/well of stop solution (cold acetonitrile containing 200 ng/mL tolbutamide (internal standard)) to the corresponding wells of each reaction plate at the appropriate end time point to stop the reaction.
Each plate was sealed and shaken for 10 minutes. Each plate was centrifuged at 4000 rpm and 4 °C for 20 minutes. After centrifugation, 100 µL of supernatant was transferred from each reaction plate to the corresponding analysis plate, and mixed well with 300 µL of ultra-pure water.

[2] = Pharmacokinetic study in rats (IV and PO); type: in vivo, SD male rats
Experimental: Each group was divided into 2 subgroups (intravenous bolus group (IV) and gavage group (PO)).
Whole blood samples (about 0.2 mL per time point) were collected at pre-dose (0), 0.083, 0.25, 0.5, 1, 2, 4, 8, 12, and 24 hours post-dose by jugular vein puncture. All the blood samples were immediately transferred into labeled pre-chilled commercial microcentrifuge tubes containing 4 µL of 0.5M K2-EDTA and 10 µL of cocktail stabilizer. Samples were placed on wet ice until centrifugation (within 30 min). Plasma samples were then prepared by centrifuging the blood samples at approximately 4 °C, 3200xg for 10 minutes. Supernatant plasma was pipetted, then quickly frozen over dry ice, and then kept at -60 °C or lower temperature until LC-MS/MS analysis.
The plasma concentrations were subjected to a non-compartmental pharmacokinetic analysis by using the WinNonlin™ software program (version 6.3).

C57BL/6J mice [3] = test: Oral glucose tolerance test (OGTT), glucose-lowering effect; type: in vivo; conditions: for blood glucose level at 0 min (pre-glucose): oral, 1 hour after administration, dose-response relationship; for blood glucose values after glucose administration: 60 min, and 120 min
Experimental: (§1) There were 7 groups of mice, with 8 mice in each group. […] Oral glucose tolerance test (OGTT) was performed 1 hour after administration. The blood glucose level in mice was tested before administration (-60 min), before sugar administration (0 min), and at 15 min, 30 min, 60 min, and 120 min after sugar administration. In addition, 40 µl of blood was collected from the tail tip before sugar administration (0 min) and at 15 min after sugar administration to collect the plasma for an insulin level test.
(§2) All data was transferred into an Excel document. The blood glucose results were expressed in mg/dL and expressed as MEAN ± SEM. Differences between multiple groups were analyzed using Dunnett's method in one-way analysis of variance (ANOVA) or two-way analysis of variance (ANOVA) with Graphpad Prism 8 software for comparison, and the differences were considered statistically significant when the P value was less than 0.05.

C57BL/6J mice [4] = test: Plasma insulin level test during OGTT; type: in vivo
Experimental: as §1, §2

[5] = Preliminary solubility test in solvents at room temperature; type: physicochemical
Experimental: Table 10 Solubility range of the starting material sample at room temperature
The solubility range in the corresponding solvent was calculated based on the mass of the sample and the volume of the added solvent, as shown in Table 28. The data were used as a base to guide the selection of solvent in screening tests. Table 28 Preliminary solubility of crystal form A of the free state at room temperature
The solubility range in the corresponding solvent was calculated based on the mass of the sample and the volume of the added solvent, as shown in Table 35. The data were used as a base to guide the selection of solvent in the screening tests.

[6] = Caco-2 bi-directional permeability test; conditions: human; for recovery at 2 h, 2 µM: Compound A concentration 2.00 µM; for recovery at 2 h, 10 µM: Compound A concentration 10.0 µM
Experimental: (§3) Caco-2 cell culture: Caco-2 cells (purchased from American Type Culture Collection, ATCC) were inoculated on polyethylene film (PET) of a 96-well culture plate at a concentration of 1x10^5 cells/cm^2. The culture medium was replaced every 4 days until cell confluency to form cell monolayer on day 21 or 28.
(§4) Transport test: Transport buffer used in the test was Hanks' Balanced Salt Solution (HBSS) containing 10 mM 2-[4-(2-hydroxyethyl)-1-piperazinyl] ethanesulfonic acid (HEPES) with a pH of 7.40 ± 0.05. In vitro permeability studies were performed with Nadolol, Metoprolol and Digoxin as model permeants. […] Digoxin was assessed bi-directionally with a test concentration of 10.0µM (n=2). Nadolol and Metoprolol were assessed unidirectionally both with a test concentration of 2.00 µM (n=2). The final concentration of DMSO in the incubation system was adjusted to <1%.

Caco-2 cells = test: Caco-2 bi-directional permeability test; conditions: Caco-2
Experimental: as §3, §4

[7] = Dynamic vapour sorption (DVS) test; type: physicochemical; conditions: relative humidity of less than or equal to 90%; listed as crystal form B of the hydrochloride
Experimental: A certain amount of powder was taken and put into a sample pan, and hygroscopicity of the sample was evaluated with DVS according to the following instrument method:

[8] = High-temperature and high-humidity stability test of hydrochloride crystal form B; type: physicochemical
[9] = C57BL/6J mice, versus vehicle control group
[10] = acetone, 25 °C, organic solvent or mixture, thermodynamic from solid, room temperature
[11] = chcl3, 25 °C, organic solvent or mixture, thermodynamic from solid, CHCl3, room temperature
[12] = Caco-2, pH 7.4, Average recovery rate (%) A→B
[13] = Caco-2, pH 7.4, Average recovery rate (%) B→A

**Q.** What does the source list for CC(C)C[C@@H](C(=O)Nc1ccn(C[C@@H](O)COC(=O)c2cccnc2)n1)N1CC(Oc2ccccc2Cl)=CC1=O [Compound A, (R)-3-(3-((S)-2-(4-(2-chlorophenoxy)-2-oxo-2,5-dihydro-1H-pyrrol-1-yl)-4-methylpentanamido)-1H-pyrazol-1-yl)-2-hydroxypropyl nicotinate]?
**A.** time until completely metabolized and converted into the parent drug HMS5552 [1]: ≤ 5 min; metabolism in rats by intravenous injection ([2]; rats, intravenous injection): metabolized very rapidly; glucose-lowering effect in mice (C57BL/6J mice [3]; C57BL/6J mice, OGTT): good glucose-lowering effect; blood glucose level at 0 min (pre-glucose) (C57BL/6J mice [3]; [9]): generally lower than that of the vehicle control group; blood glucose values after glucose administration (C57BL/6J mice [3]; compound A-49.1 mg/kg group, at 15 min, 30 min, versus vehicle control group): significantly lower than that of the vehicle control group; blood glucose values after glucose administration (C57BL/6J mice [3]; compound A-49.1 mg/kg group, at 30 min, versus HMS5552-40mg/kg group): significantly lower than that of the HMS5552-40mg/kg group; AUC0-120min of OGTT blood glucose (C57BL/6J mice [3]; medium and high dose groups of compound A versus corresponding dose groups of HMS5552): significantly lower than those of the corresponding dose groups of HMS5552; insulin level at 0 min (C57BL/6J mice [4]; compound A high-dose group): significantly higher than that of the vehicle control group and the HMS5552 high-dose group; insulin level at 15 min (C57BL/6J mice [4]; compound A-18.4mg/kg group versus corresponding dose group of HMS5552): significantly higher than that of the corresponding dose group of HMS5552; insulin level at 15 min (C57BL/6J mice [4]; compound A-18.4mg/kg group versus vehicle control group): significantly higher than that of the vehicle control group; insulin level at 15 min (C57BL/6J mice [4]; compound A-49.1mg/kg group versus vehicle control group): significantly higher than that of the vehicle control group; Solubility (mg/mL) ([5]; 1,4-Dioxane, room temperature): S>42.0 mg/mL; Solubility (mg/mL) ([5]; 2-MeTHF, room temperature): S>42.0 mg/mL; solubility ([5]; 2-MeTHF/n-Heptane (1:4) v/v, 25 °C, organic solvent or mixture, thermodynamic from solid, 2-MeTHF/n-Heptane (1:4) v/v, room temperature): < 1000 µg/mL; Solubility (mg/mL) ([5]; ACN, room temperature): S>50.0 mg/mL; solubility ([5]; Cyclohexane, 25 °C, organic solvent or mixture, thermodynamic from solid, room temperature): < 1100 µg/mL; solubility ([5]; DCM, 25 °C, organic solvent or mixture, thermodynamic from solid, room temperature): > 44000 µg/mL; solubility ([5]; DMAc, 25 °C, organic solvent or mixture, thermodynamic from solid, room temperature): > 42000 µg/mL; solubility ([5]; DMSO, 25 °C, organic solvent or mixture, thermodynamic from solid, room temperature): > 44000 µg/mL; Solubility (mg/mL) ([5]; EtOAc, room temperature): S>48.0 mg/mL; solubility ([5]; EtOAc/n-heptane (1:4 v/v), 25 °C, organic solvent or mixture, thermodynamic from solid, EtOAc/n-Heptane (1:4) v/v, room temperature): < 1100 µg/mL; Solubility (mg/mL) ([5]; EtOH, room temperature): S>46.0 mg/mL; solubility ([5]; EtOH/H2O (1:2) v/v, 25 °C, aqueous with cosolvent or surfactant or cyclodextrin, thermodynamic from solid, EtOH/H2O (1:2) v/v, room temperature): 2100 to 5300 µg/mL (≈ 3.7 to 9.33 mM); solubility ([5]; H2O, 25 °C, water, thermodynamic from solid, room temperature): < 1100 µg/mL; Solubility (mg/mL) ([5]; IPA, room temperature): S>38.0 mg/mL; Solubility (mg/mL) ([5]; IPAc, room temperature): S>44.0 mg/mL; Solubility (mg/mL) ([5]; MIBK, room temperature): S>40.0 mg/mL; solubility ([5]; MeOH, 25 °C, organic solvent or mixture, thermodynamic from solid, room temperature (25±3 °C)): > 50000 µg/mL; solubility ([5]; NMP, 25 °C, organic solvent or mixture, thermodynamic from solid, room temperature): > 44000 µg/mL; solubility ([5]; THF, 25 °C, organic solvent or mixture, thermodynamic from solid, room temperature): > 40000 µg/mL; solubility ([5]; Toluene/n-Heptane (1:1) v/v, 25 °C, organic solvent or mixture, thermodynamic from solid, Toluene/n-Heptane (1:1) v/v, room temperature): 1000 to 2000 µg/mL (≈ 1.76 to 3.52 mM); solubility [5, 10]: > 46000 µg/mL; solubility ([5]; acetone/H2O (1:2 v/v), 25 °C, aqueous with cosolvent or surfactant or cyclodextrin, thermodynamic from solid, Acetone/H2O (1:2) v/v, room temperature): 5300 to 10500 µg/mL (≈ 9.33 to 18.5 mM); solubility [5, 11]: > 48000 µg/mL; solubility ([5]; n-Heptane, 25 °C, organic solvent or mixture, thermodynamic from solid, room temperature): < 1100 µg/mL; recovery at 2 h, 2 µM [6, 12]: 52.9%; recovery at 2 h, 10 µM [6, 12]: 37.5%; recovery at 2 h, 2 µM [6, 13]: 87.1%; recovery at 2 h, 10 µM [6, 13]: 81.6%; recovery at 2 h, 30 µM ([6]; Caco-2, pH 7.4, Average recovery rate (%) B→A, Compound A concentration 30.0 µM): 82.2%; permeability from A side to B side (Caco-2 cells): low; permeability from B side to A side (Caco-2 cells): high

**Q.** For CC(C)C[C@@H](C(=O)Nc1ccn(C[C@@H](O)CO)n1)N1CC(Oc2ccccc2Cl)=CC1=O [HMS5552, (S)-2-(4-(2-chlorophenoxy)-2-oxo-2,5-dihydro-1H-pyrrol-1-yl)-N-(1-((R)-2,3-dihydroxypropyl)-1H-pyrazol-3-yl)-4-methylpentanamide, reference compound], which bioavailability ([2]; Sprague-Dawley, rat, plasma, 30 mg/kg, SD male rats, PO, analyte parent drug HMS5552) is on record?
**A.** The bioavailability was 51.2%.

**Q.** And the “blood glucose level at 0 min (pre-glucose)” value (C57BL/6J mice [3]; [9])?
**A.** The value was “generally lower than that of the vehicle control group”.

**Q.** What about the “blood glucose values after glucose administration” value (C57BL/6J mice [3]; HMS5552-40mg/kg group, at 30 min, versus vehicle control group) of the same molecule?
**A.** Its value is “significantly lower than that of the vehicle control group”.

**Q.** And the “insulin levels at 0 min and 15 min” value (C57BL/6J mice [4]; each dose group of HMS5552 versus vehicle control group)?
**A.** Its value is “slightly higher than those in the vehicle control group, without significant difference”.

**Q.** Which results are given for CC(C)C[C@@H](C(=O)Nc1ccn(C[C@@H](O)COC(=O)c2cccnc2)n1)N1CC(Oc2ccccc2Cl)=CC1=O [Hydrochloride crystal form B]?
**A.** Solubility (mg/mL) ([5]; 1,4-Dioxane, room temperature, listed as crystal form B of the hydrochloride): S<1.0 mg/mL; solubility ([5]; 2-methf, 25 °C, organic solvent or mixture, thermodynamic from solid, room temperature): < 1000 µg/mL; Solubility (mg/mL) ([5]; DMAc, room temperature, listed as crystal form B of the hydrochloride): S>40.0 mg/mL; Solubility (mg/mL) ([5]; DMSO, room temperature, listed as crystal form B of the hydrochloride): S>42.0 mg/mL; Solubility (mg/mL) ([5]; H2O, room temperature, listed as crystal form B of the hydrochloride): S<1.0 mg/mL; Solubility (mg/mL) ([5]; MTBE, room temperature, listed as crystal form B of the hydrochloride): S<1.0 mg/mL; Solubility (mg/mL) ([5]; MeOH, room temperature (25±3 °C), listed as crystal form B of the hydrochloride): S>36.0 mg/mL; Solubility (mg/mL) ([5]; NMP, room temperature, listed as crystal form B of the hydrochloride): S>42.0 mg/mL; Solubility (mg/mL) ([5]; Toluene, room temperature, listed as crystal form B of the hydrochloride): S<1.0 mg/mL; solubility [5, 10]: < 1000 µg/mL; solubility ([5]; acn, 25 °C, organic solvent or mixture, thermodynamic from solid, room temperature): < 1100 µg/mL; solubility ([5]; acn/h2o (1:1) v/v, room temperature): > 40000 µg/mL; solubility [5, 11]: < 1100 µg/mL; solubility ([5]; dcm, 25 °C, organic solvent or mixture, thermodynamic from solid, room temperature): < 1000 µg/mL; solubility ([5]; dmf/h2o (1:1) v/v, room temperature): 22000 to 44000 µg/mL; solubility ([5]; etoac, 25 °C, organic solvent or mixture, thermodynamic from solid, room temperature): < 1000 µg/mL; solubility ([5]; etoh/h2o (1:1) v/v, room temperature): 22000 to 44000 µg/mL; solubility ([5]; ipa, 25 °C, organic solvent or mixture, thermodynamic from solid, room temperature): < 1100 µg/mL; solubility ([5]; ipa/h2o (1:1) v/v, room temperature): > 40000 µg/mL; solubility ([5]; ipac, 25 °C, organic solvent or mixture, thermodynamic from solid, room temperature): < 1000 µg/mL; solubility ([5]; meoh/h2o (1:1) v/v, room temperature): 11000 to 22000 µg/mL; solubility ([5]; mibk, 25 °C, organic solvent or mixture, thermodynamic from solid, room temperature): < 1000 µg/mL; Solubility (mg/mL) ([5]; n-Heptane, room temperature, listed as crystal form B of the hydrochloride): S<1.0 mg/mL; solubility ([5]; thf, 25 °C, organic solvent or mixture, thermodynamic from solid, room temperature): < 1100 µg/mL; solubility ([5]; thf/h2o (1:1) v/v, room temperature): 20000 to 40000 µg/mL; moisture-induced weight gain [7]: less than 0.7%; Purity (Area%) ([8]; 25 °C/75%RH, Day 2): 99.72 Area%; Purity (Area%) ([8]; 25 °C/75%RH, Day 5): 99.56 Area%; Purity (Area%) ([8]; 25 °C/75%RH, Day 9): 99.64 Area%; Purity (Area%) ([8]; 40°C/75%RH, Day 2): 99.67 Area%; Purity (Area%) ([8]; 40°C/75%RH, Day 5): 99.38 Area%; Purity (Area%) ([8]; 40°C/75%RH, Day 9): 99.33 Area%; Purity (Area%) ([8]; 60°C, Day 2): 99.55 Area%; Purity (Area%) ([8]; 60°C, Day 5): 99.43 Area%; Purity (Area%) ([8]; 60°C, Day 9): 99.55 Area%; Purity (Area%) ([8]; 80°C, Day 2): 95.20 Area%; Purity (Area%) ([8]; 80°C, Day 5): 94.65 Area%; Purity (Area%) ([8]; 80°C, Day 9): 96.80 Area%; Purity (Area%) ([8]; Starting point (table 25 °C/75%RH / 40°C/75%RH)): 99.72 Area%; Purity (Area%) ([8]; Starting point (table 60°C / 80°C)): 99.72 Area%; stability under the high-temperature and high-humidity conditions ([8]; compared with crystal form A of the free state): not as stable as crystal form A of the free state
